{"source": "paper PMC6691761", "about": "“Potential multifunctional agents with anti-hepatoma and anti-inflammation properties by inhibiting NF-кB activation” (Journal of Enzyme Inhibition and Medicinal Chemistry, 2019)", "key": {"[1]": {"test_system": "C-caspase-3 expression in HepG2 xenografts", "assay": "Western blot, C-caspase-3 in HepG2 xenografts", "assay_type": "in vivo, Balb/c nude mice", "conditions": "0.2, 1.0 and 5.0 mg/kg", "protocol": "The HepG2 cells xenografts were established using the Balb/c nude mice (female, 7-week-old, 17–19 g, n = 30) (Shanghai Laboratory Animal Center, Shanghai Shi, China) were used to investigate the anti-hepatoma effect of 96. Animal experiments were reviewed and approved by the Binzhou Medical University Experimental Animal Committee. Briefly, HepG2 cells (1 × 10^7/0.2 ml PBS/mouse) were inoculated subcutaneously. Three days after the inoculation, the mice were randomly divided into five groups: the saline treated group (Control), 96 (0.2 mg/kg) group, 96 (1.0 mg/kg) treated group, 96 (5.0 mg/kg) treated group, and DOX (1.0 mg/kg) treated group. 96 were dissolved in saline containing 1% of DMSO and administered intraperitoneally every 2 d for 20 days. DOX was also administered intraperitoneally every 2 d for 20 d. The body weight and HepG2 xenografts volumes were recorded from the day of treatment, and xenografts volumes were calculated using the equation: tumour volume = length×(width)[2]×π/6. At the end of the experiment, mice were sacrificed and the xenografts were obtained for western blotting, HE staining and immunohistochemistry staining.\nWestern blotting was performed to detect the expression of Bcl-2, Bax and C-caspase-3 in HepG2 xenografts. Fresh HepG2 xenografts tissues were lysed and the obtained proteins were processed as the protein obtained from the HepG2 cells."}, "[2]": {"test_system": "TNF-α production in LPS-stimulated RAW264.7 cells", "assay": "TNF-α production in LPS-stimulated RAW264.7 cells, ELISA", "assay_type": "cell-based", "conditions": "BAPs 6.0 μM, PDTC 30 μM, LPS 1.0 μg/mL", "protocol": "The anti-inflammatory activities of BAPs were evaluated by ELISA. After pretreated with 30 μM of positive drug pyrrolidinedithiocarbamate (PDTC) or 6 μM of BAPs for 2 h, cells were treated with LPS (1.0 μg/mL) for 22 h. The culture media were collected and centrifuged for detecting the expression levels of TNF-α by an ELISA kit (eBioScience, San Diego, CA).\nTNF-α is a common pro-inflammatory factors that can be produced by LPS-stimulated RAW264.7 macrophage[14]^,[24]. In order to evaluate the anti-inflammatory activity of BAPs, the effect of BAPs on TNF-α production in LPS-stimulated RAW264.7 cells was detected by ELISA. […] Only 92 presented slightly lower expression of TNF-α secretion (about 57%)."}, "[3]": {"test_system": "NF-κB p65 nuclear translocation in LPS-stimulated RAW264.7 cells", "assay": "NF-κB p65 nuclear translocation, immunofluorescence, RAW264.7", "assay_type": "cell-based", "conditions": "RAW264.7, LPS 1.0 μg/mL, 4.0 μM", "protocol": "RAW264.7 cells were pretreated in 96-well plates with LPS (1 μg/mL) for 15 min and then treated with 96 for 2 h. Similarly, HepG2 cells were pretreated with TNF-α (10 ng/mL) for 15 min and then treated with 96 for 4 h. The cells were fixed with 2% paraformaldehyde for 15 min at 37 °C and permeabilized using 0.1% Triton X-100 for 10 min at RT. After blockage with 3% BSA for 30 min, the cells were incubated with anti-NF-κB p65 antibody (NOVUS BIOLOGICALS, Colorado, USA) at 4 °C overnight. After washing, the anti-mouse Alexa488-conjugated secondary antibody (Jackson Immuno Research, West Grove, PA) was incubated for 30 min at RT. After washed with PBS, the cells were incubated in 4-6-diamidino-2-phenyindole (DAPI; Sigma, St. Louis, MO) for 15 min in the dark at RT. The cell images were simultaneously viewed using a microscopy system in High Throughput Screen (Operetta, PerkinElmer, Waltham, MA)."}, "[4]": {"test_system": "human liver hepatocellular carcinoma cell line (HepG2)", "assay": "Cytotoxicity, MTT assay, HepG2", "assay_type": "cell-based", "conditions": "for IC50: MTT, 24 h", "summary_of_the_method": "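Seed 1 × 10^4 cells/well, 24 h; treat 24 h, 10 concentrations 0.01–50 μg/mL, final DMSO 0.1% v/v; MTT 4 h, 37 °C; DMSO solubilisation; OD 570 nm. Viability % vs untreated; IC50, n = 3.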"}}, "data": [{"smiles": "CN1CC(=Cc2cccc(N=Cc3cc(Br)ccc3O)c2)C(=O)C(=Cc2ccccc2F)C1", "note": "[Compound 96]", "values": [{"measurement": "Expression of C-caspase-3 in HepG2 xenografts", "setting": "[1]", "value": "significantly increased in a dose-dependent manner"}, {"measurement": "Inhibition of TNF-α secretion compared with PDTC (in words)", "setting": "[2]", "value": "strongest inhibitory effect"}, {"measurement": "TNF-α secretion", "setting": "[2]", "value": 45, "unit": "%"}, {"measurement": "p65 nuclear translocation", "setting": "[3]", "value": "prevented the p65 nuclear translocation"}, {"measurement": "IC50", "setting": "[4]; Homo sapiens, HepG2, 24 h", "value": "< 2", "unit": "µM"}, {"measurement": "IC50", "setting": "[4]", "value": "1 ± 0.4", "unit": "µM"}, {"measurement": "HepG2 SI (selectivity index)", "setting": "[4]; quotient of IC50 towards LO2 cells", "value": 19.9}]}]}
